Assay results taken from patent publication US4194055A, “15,16-dioxy prostenoic acids and esters” (American Cyanamid Company, priority 1978, dated 1980).

How the values were obtained:
[1] = tested on: basal gastric acid secretion; assay: Inhibition of gastric acid secretion in the acute gastric fistula rat; assay type: in vivo, Female Sprague-Dawley rats; conditions: intraduodenal
Protocol: The compounds of this invention are also useful as inhibitors of gastric acid secretion and peptic ulcer formation and may be used for the treatment of gastric hyperacidity, gastric erosion, and peptic ulcer. Inhibition of basal gastric acid secretion can be determined by the following procedure.
Female Sprague-Dawley rats weighing 140-160 grams are fasted in individual cages for 18-24 hours. The rats are then lightly anesthetized with ether and their front teeth extracted to avoid destruction of the plastic cannula. A midline incision is then made and the stomach and duodenum exposed. A flanged polyvinyl tube is inserted into the fundic portion of the stomach and secured with a purse string suture line using 4-O Mersilene. The rat is then dosed by injection of the compound into the duodenum (1.0 ml. per 100 gram body weight). After dosing, the abdominal wall and skin are closed using metal wound clips. The rat is replaced in a cage containing a longitudinal slit to allow the polyvinyl tube to hang freely. An 8 ml. plastic collecting tube is attached to the flanged cannula and hangs freely below the cage. The first 30 minute sample is discarded designating this time as zero. The collecting tube is attached again and samples removed at the end of 60 and 120 minutes. The hourly samples are then transferred to a 15 ml. centrifuge and centrifuged for 5-10 minutes. Total and sediment volume are then recorded with the supernatant volume being used as volume of secretion. A 1 ml. or less aliquot is then removed and placed in a 50 ml. beaker containing 10 ml. of distilled water. This sample is then titrated using 0.01 N NaOH to pH 7.0 using a Beckman zeromatic pH meter. Volume, titratable acidity (meq/L) and total acid output (ueg/hour) are recorded. Percent inhibition is determined by comparison with the appropriate control. Groups of three rats were used for preliminary testing, and groups of six rats were used for dose-response evaluations. All compounds are administered in a vehicle consisting of 0.5% methocel, 0.4% tween 80, and saline at a constant volume of 1 ml./100 gram rat. Samples are dispersed by sonification. Percent inhibition is calculated on basis of concurrent vehicle control.
In Table B which follows is given the effect on total acid output after 60 minutes (response A) and 120 minutes (response B) for various doses of representative compounds of this invention.

[2] = tested on: bronchospasms elicited by intravenous injections of 5-hydroxytryptamine; assay: Bronchodilator activity (Konzett assay) against 5-hydroxytryptamine; assay type: in vivo, guinea pigs; conditions: Cavia porcellus; three logarithmic cummulative intravenous doses; spasmogen 5-hydroxytryptamine i.v.; read-out: Bronchodilator Activity (Konzett Assays) ED50, Spasmogenic Agent 5-Hydroxytryptamine
Protocol: (§1) The compounds of this invention are useful as bronchodilators for the treatment of asthma and chronic bronchitis. Bronchodilator activity is determined in guinea pigs against bronchospasms elicited by intravenous injections of 5-hydroxytryptamine, histamine or acetylcholine by the Konzett procedure. [See J. Lulling, P. Lievens, F. El Sayed and J. Prignot, Arzneimittel-Forschung, 18, 955 (1968).]
(§2) In Table A which follows bronchodilator activity for representative compounds of this invention against one or more of three spasmogenic agents is expressed in an ED50 determined from the results obtained with three logarithmic cummulative intravenous doses.

[3] = tested on: bronchospasms elicited by intravenous injections of histamine; assay: Bronchodilator activity (Konzett assay) against histamine; assay type: in vivo, guinea pigs; conditions: Cavia porcellus; three logarithmic cummulative intravenous doses; spasmogen histamine i.v.; read-out: Bronchodilator Activity (Konzett Assays) ED50, Spasmogenic Agent Histamine
Protocol: as §1, §2

[4] = tested on: Mean arterial blood pressure; assay: Hypotensive activity in anesthetized normotensive rats; assay type: in vivo, Royalhart, Wistar strain, male; conditions: Rattus norvegicus, iv, infused over one minute, read-out: % Decrease Mean Arterial Blood Pressure
Protocol: The animals used are Royalhart, Wistar strain, male, normotensive rats weighing 250-300 g. The rats are anesthetized using a 100 mg./ml. saline solution of urethane at a rate of 900 mg./kg. intraperitoneally.
The instrumentation used in a Brush model 260 recorder, Statham mode P23Db pressure transducer and Harvard model 940 infusion pump with a 6 cc syringe at speed 4.
The left carotid artery is cannulated with polyethylene tubing for arterial blood pressure. The left external juglar vein is cannulated with polyethylene tubing for […] the test compound is infused over a one minute period in a volume of 0.5 ml., […] (ethanol, 1 M NaHCO3 or saline) and then flushed with 0.4 ml. of saline.
Mean arterial blood pressure is then measured in two test animals per compound against a control value.

[5] = tested on: bronchospasms elicited by intravenous injections of acetylcholine; assay: Bronchodilator activity (Konzett assay) against acetylcholine; assay type: in vivo, guinea pigs; conditions: Cavia porcellus; three logarithmic cummulative intravenous doses; spasmogen acetylcholine i.v.; read-out: Bronchodilator Activity (Konzett Assays) ED50, Spasmogenic Agent Acetylcholine
Protocol: as §1, §2

[6] = tested on: basal gastric acid secretion; assay: Inhibition of gastric acid secretion in the acute gastric fistula rat; assay type: in vivo, Female Sprague-Dawley rats; conditions: oral

Question: How did the “% Inhibition of Total Acid Output After 60 min.” value ([1]; 10 mg./kg.) turn out when CCCCC(OC)C(O)/C=C/C1CCC(=O)C1CCCCCCC(=O)OCC (mixture of isomers) [all racemic erythro ethyl 9-oxo-15-hydroxy-16-methoxy-13-trans-prostenoate] was run?
Answer: Its value is 43%.

Question: And the “% Inhibition of Total Acid Output After 120 min.” value ([1]; 10 mg./kg.)?
Answer: Its value is 0%.

Question: With CCCCC(O)C(O)/C=C/C1CCC(=O)C1CCCCCCC(=O)O (mixture of isomers) [all racemic erythro-9-oxo-15,16-dihydroxy-13-trans-prostenoic acid] as the compound, how does the ED50 [2] read?
Answer: Its ED50 is 0.537 mg/kg.

Question: And the ED50 [3]?
Answer: Its ED50 is 0.01 mg/kg.

Question: Which “% Inhibition of Total Acid Output After 60 min.” value ([1]; 10 mg./kg.) does the source give for CCCCC1OC(C)(C)OC1/C=C/C1C(OC2CCCCO2)CC(=O)C1C/C=C\CCCC(=O)O (mixture of isomers) [d,l-erythro-9-oxo-11α-tetrahydropyranyloxy-15,16-isopropylidenedioxy-5-cis,13-trans-prostadienoic acid] here?
Answer: Its value is 55%.

Question: And the “% Inhibition of Total Acid Output After 120 min.” value ([1]; 10 mg./kg.)?
Answer: Its value is 29%.

Question: For CCCCC1OC(C)(C)OC1/C=C/C1CCC(=O)C1CCCCCCC(=O)O (mixture of isomers) [d,l-erythro-9-oxo-15,16-isopropylidenedioxy-13-trans-prostenoic acid], which inhibition in vivo at 1.3 mg/kg ([4]; 1.3 mg./kg.) is on record?
Answer: Its inhibition in vivo at 1.3 mg/kg is 63%.

Question: And the inhibition in vivo at 2.5 mg/kg ([4]; 2.5 mg./kg.)?
Answer: Its inhibition in vivo at 2.5 mg/kg is 21%.

Question: For CCCCC(O)C(O)CCC1CCC(=O)C1CCCCCCC(=O)O (racemic) [all racemic erythro-9-oxo-15,16-dihydroxy-prostanoic acid], which “% Inhibition of Total Acid Output After 60 min.” value ([1]; 10 mg./kg.) is on record?
Answer: Its value is 56%.

Question: And the “% Inhibition of Total Acid Output After 120 min.” value ([1]; 10 mg./kg.)?
Answer: The value was 46%.

Question: For CCCC[C@H](OC)[C@H](O)/C=C/[C@H]1C=CC(=O)[C@@H]1C/C=C\CCCC(=O)O (relative stereo) [d1-erythro-9-oxo-15-hydroxy-16-methoxy-5-cis,10,13-trans-prostatrienoic acid], which inhibition in vivo at 1.9 mg/kg [4] is on record?
Answer: Its inhibition in vivo at 1.9 mg/kg is 26%.

Question: Which inhibition in vivo at 1.8 mg/kg ([4]; 1.8 mg./kg.) does the source give for CCCC[C@H](OC)[C@H](O)/C=C/[C@H]1[C@H](O)CC(=O)[C@@H]1C/C=C\CCCC(=O)O (relative stereo) [d,1-erythro-9-oxo-11α,15-dihydroxy-16-methoxy-5-cis,13-trans-prostadienoic acid] here?
Answer: The inhibition in vivo at 1.8 mg/kg was 44%.

Question: With CCCC[C@H](OC)[C@H](O)/C=C/[C@H]1CCC(=O)[C@@H]1CCCCCCC(=O)O (relative stereo) [d,1-erythro-9-oxo-15-hydroxy-16-methoxy-13-trans-prostenoic acid] as the compound, how does the ED50 [3] read?
Answer: Its ED50 is over 3.2 mg/kg.

Question: And the ED50 [5]?
Answer: Its ED50 is over 0.32 mg/kg.

Question: What about the inhibition in vivo at 2.1 mg/kg [4] of the same compound?
Answer: The inhibition in vivo at 2.1 mg/kg was 29%.

Question: With CCCC[C@@H](O)[C@@H](O)/C=C/[C@H]1CCC(=O)[C@@H]1CCCCCCC(=O)OCC (relative stereo) [d,l-erythro ethyl 9-oxo-15-epi-16-dihydroxy-13-trans-prostenoate] as the compound, how does the inhibition in vivo at 2.4 mg/kg [4] read?
Answer: Its inhibition in vivo at 2.4 mg/kg is 33%.

Question: For CCCC[C@@H](OC)[C@@H](O)/C=C/[C@H]1CCC(=O)[C@@H]1CCCCCCC(=O)OCC (relative stereo) [d,l-erythro ethyl 9-oxo-15-epi-hydroxy-16-methoxy-13-trans-prostenoate], which inhibition in vivo at 2.3 mg/kg ([4]; 2.3 mg./kg.) is on record?
Answer: The inhibition in vivo at 2.3 mg/kg was 9%.

Question: Which “% Inhibition of Total Acid Output After 60 min.” value ([1]; 2.5 mg./kg.) does the source give for CCCC[C@H](O)[C@H](O)/C=C/[C@H]1CCC(=O)[C@@H]1CCCCCCC(=O)O (relative stereo) [d,l-erythro-9-oxo-15,16-dihydroxy-13-trans-prostenoic acid] here?
Answer: Its value is 77%.

Question: What about the “% Inhibition of Total Acid Output After 120 min.” value ([1]; 2.5 mg./kg.) of the same compound?
Answer: Its value is 76%.

Question: And the inhibition in vivo at 2.1 mg/kg [4]?
Answer: Its inhibition in vivo at 2.1 mg/kg is 23%.

Question: Which “% Inhibition of Total Acid Output After 60 min.” value ([1]; 10 mg./kg.) does the source give for CCCC[C@@H](O)[C@@H](O)/C=C/[C@H]1CCC(=O)[C@@H]1CCCCCCC(=O)O (relative stereo) [d,l-erythro-9-oxo-15-epi,16-dihydroxy-13-trans-prostenoic acid] here?
Answer: Its value is 0%.

Question: What about the “% Inhibition of Total Acid Output After 120 min.” value ([1]; 10 mg./kg.) of the same compound?
Answer: Its value is 42%.

Question: What does the source list for CCCC[C@H](O)[C@H](O)/C=C/[C@H]1[C@H](O)CC(=O)[C@@H]1C/C=C\CCCC(=O)O (relative stereo) [dl-erythro-9-oxo-11α,15,16-trihydroxy-5-cis,13-trans-prostadienoic acid]?
Answer: ED50 [2]: 0.024 mg/kg; ED50 [3]: 0.0098 mg/kg; ED50 [5]: 0.013 mg/kg; % Inhibition of Total Acid Output After 60 min. ([1]; 10 mg./kg.): 98%; % Inhibition of Total Acid Output After 120 min. ([1]; 10 mg./kg.): 55%; inhibition in vivo at 0.1 mg/kg ([4]; 0.1 mg./kg.): 6%; % Inhibition of Total Acid Output After 60 min. ([6]; 5 mg./kg.): 86%; % Inhibition of Total Acid Output After 120 min. ([6]; 5 mg./kg.): 89%

Question: How did the ED50 [2] turn out when CCCC[C@@H](O)[C@@H](O)/C=C/[C@H]1[C@H](O)CC(=O)[C@@H]1C/C=C\CCCC(=O)O (relative stereo) [dl-erythro-9-oxo-11α,15-epi,16-trihydroxy-5-cis,13-trans-prostadienoic acid] was run?
Answer: Its ED50 is 1.28 mg/kg.

Question: And the ED50 [5]?
Answer: The ED50 was 2.43 mg/kg.

Question: What about the “% Inhibition of Total Acid Output After 60 min.” value ([1]; 10 mg./kg.) of the same compound?
Answer: The value was 100%.

Question: And the “% Inhibition of Total Acid Output After 120 min.” value ([1]; 10 mg./kg.)?
Answer: Its value is 82%.

Question: What about the inhibition in vivo at 2 mg/kg ([4]; 2.0 mg./kg.) of the same compound?
Answer: Its inhibition in vivo at 2 mg/kg is 57%.

Question: What about the “% Inhibition of Total Acid Output After 60 min.” value ([6]; 10 mg./kg.) of the same compound?
Answer: The value was 66%.

Question: What about the “% Inhibition of Total Acid Output After 120 min.” value ([6]; 10 mg./kg.) of the same compound?
Answer: Its value is 65%.

Question: How did the inhibition in vivo at 1.9 mg/kg [4] turn out when CCCC[C@@H](OC)[C@@H](O)/C=C/[C@H]1[C@H](O)CC(=O)[C@@H]1C/C=C\CCCC(=O)O (relative stereo) [dl-erythro-9-oxo-11α,15-epi-15-hydroxy-16-methoxy-5-cis,13-trans-prostadienoic acid] was run?
Answer: The inhibition in vivo at 1.9 mg/kg was 19%.

Question: How did the inhibition in vivo at 2.1 mg/kg [4] turn out when CCCC[C@@H](O)[C@@H](O)/C=C/[C@H]1C=CC(=O)[C@@H]1C/C=C\CCCC(=O)O (relative stereo) [dl-erythro-9-oxo-15-epi, 16-dihydroxy-5-cis,10,13-trans-prostatrienoic acid] was run?
Answer: The inhibition in vivo at 2.1 mg/kg was 54%.

Question: With CCCC[C@@H](OC)[C@@H](O)/C=C/[C@H]1CCC(=O)[C@@H]1CCCCCCC(=O)O (relative stereo) [dl-erythro-9-oxo-15-epi-hydroxy-16-methoxy-13-trans-prostenoic acid] as the compound, how does the ED50 [2] read?
Answer: The ED50 was 7.99 mg/kg.

Question: What about the ED50 [3] of the same compound?
Answer: Its ED50 is over 3.2 mg/kg.

Question: And the ED50 [5]?
Answer: The ED50 was over 3.2 mg/kg.

Question: What about the inhibition in vivo at 2.4 mg/kg [4] of the same compound?
Answer: The inhibition in vivo at 2.4 mg/kg was 18%.

Question: With CCCC[C@@H](O)[C@@H](O)/C=C/[C@@H]1[C@@H](C/C=C\CCCC(=O)O)[C@@H](O)C[C@H]1O (relative stereo) [dl-erythro-9α,11α,15-epi,16-tetrahydroxy-5-cis,13-trans-prostadienoic acid] as the compound, how does the inhibition in vivo at 2.2 mg/kg ([4]; 2.2 mg./kg.) read?
Answer: The inhibition in vivo at 2.2 mg/kg was 20%.
